Experimental data: patent US6391564B1, “Methods and compositions utilizing Rad51” (priority 1997, dated 2002)
Where two headings read alike, the source gives them in different places.

What was measured:
[1] = system: TGR-1 cells; experiment: Apoptosis by fluorescence in situ end labeling (FISEL) in TGR-1 cells; type: cell-based, rat; settings: After 36 hrs etoposide in culture medium
Method: Treatment with etoposide (Sedivy), a drug that inhibits DNA topoisomerase II, is a classic system for inducing apoptosis in cells (Mizumoto, et al., (1994). Mol. Pharmac. 46, 890-895).
(§3) Fluorescence In Situ End Labeling (FISEL). FISEL detects cell death (apoptosis) in situ by quantitating DNA strand breaks in individual nuclei. It uses terminal transferase (TdT) to label the 3′-ends in fragmented genomic DNA with biotinylated nucleotide. 100 μl of reaction mix contain 1 μl (25 Units) TdT (Boehringer Mannheim), 20 μl 5×TdT buffer (supplied with the enyzme), 1 μl 0.5 mM biotin-ll-dUTP, 3 μl 0.5 mM dTTP, and 75 μl ddH2O. Cytological preparations are incubated at 37° C. for 1 hr with this reaction mix. Washing the slides for 3×5 min in PBS is sufficient to terminate the reaction. The incorporated biotin-dUTP is detected with rhodarnine-conjugated avidin.

[2] = system: TGR-1 cells; experiment: Immunofluorescent staining of Rad51 foci in nuclei and micronuclei of TGR-1 cells; type: cell-based, rat; settings: TGR-1 cultures treated with etoposide, FIG. 5D
Excerpt: (§1) Immunofluorescent Staining.
(§2) Digital Imaging Microscopy.

[3] = system: TGR-1 cells
Method: To induce DSBs in DNA and recombinational repair, cell cultures were exposed to a ^137CS irradiator at doses of 900 rad and then allowed to recover for various time spans. In another experiment, cells were treated with 10 μM 5-aza-dC for 24 hrs.
Immunofluorescent Staining. Harvested cells were washed and resuspended in PBS. Cell density was adjusted to ˜10^5 cells/ml. 0.5 ml aliquots of this cell suspension were centrifuged onto clean glass slides at 800 rpm for 4 min, using a Shandon Cytospin. Immediately after cytocentrifugation, the preparations were fixed in absolute methanol for 30 min at −20° C. and then rinsed in ice-cold acetone for a few seconds. Following three washes with PBS, the preparations were incubated at 37° C. with rabbit anti-HsRad51 antiserum, diluted 1:100 with PBS, in a humidified incubator for 30 min. For some experiments, the slides were simultaneously labeled with rat anti-HsRad52 antiserum or mouse monoclonal antibody. The slides were then washed in PBS another three times for 10 min each and incubated for 30 min with fluorescein-isothiocyanate (FITC)-conjugated anti-rabbit IaG, appropriately diluted with PBS. Rad52, Gadd45, p53, and RNAPII were detected with rhodamine, conjugated anti-rat IgG or anti-mouse IgG+IgM. After three further washes with PBS, the preparations were counterstained with 1 μg/ml 4,6-diamidino-2-phenylindole (DAPI) in 2×SSC for 5 min. The slides were mounted in 90% glycerol, 0.1 M Tris-HCl, pH 8.0, and 2.3% 1,4-diazobicyclo-2,2,2-octane (DABCO).
as §3
Digital Imaging Microscopy. Images were taken with a Zeiss epifluorescence microscope equipped with a thermoelectronically cooled charge coupled device (CCD) camera (Photometries CH250), which was controlled by an Apple Macintosh computer. Gray scale source images were captured separately with filter sets for FITC, rhodamine, and DAPI. Gray scale images were pseudocolored and merged using ONCOR Image and ADOBE Photoshop software.

[4] = system: LNL8 fibroblasts; experiment: Immunofluorescent staining of Rad51 foci in nuclei and micronuclei of LNL8 fibroblasts; type: cell-based; settings: human LNL8 fibroblast cultures, non-lethal doses of 5-aza-dC
Excerpt: as §1, §2

[5] = 24 hrs 0.1 μg/ml colcemid, 1 day of recovery
[6] = 24 hrs 0.1 μg/ml colcemid, 2 days of recovery
[7] = 24 hrs 0.1 μg/ml colcemid, 3 days of recovery
[8] = 24 hrs 0.1 μg/ml colcemid, no recovery

Q: Which “cells showing genome fragmentation (FISEL-positive)” value [1] does the source give for `COc1cc([C@@H]2c3cc4c(cc3[C@@H](O[C@@H]3O[C@@H]5CO[C@@H](C)O[C@H]5[C@H](O)[C@H]3O)[C@H]3COC(=O)[C@H]23)OCO4)cc(OC)c1O` [etoposide] here?
A: half of the cells showed genome fragmentation

Q: What about the “content of induced micronuclei (Rad51 protein, fragmented DNA)” value [2] of the same compound?
A: contain Rad51 protein

Q: How did the “colcemid-treated cells arrested at metaphase” value ([3]; 24 hrs 0.1 μg/ml colcemid) turn out when `CN[C@H]1CCc2cc(OC)c(OC)c(OC)c2-c2ccc(OC)c(=O)cc21` [Colcemid, colcemid] was run?
A: 185

Q: What about the “Percentage of Cells Showing Rad51+/FISEL+” value [3, 5] of the same compound?
A: 1%

Q: And the “Percentage of Cells Showing Rad51+/FISEL−” value [3, 5]?
A: 31%

Q: What about the “Percentage of Cells Showing Rad51−/FISEL+” value [3, 5] of the same compound?
A: 14%

Q: What about the “Percentage of Cells Showing Rad51−/FISEL−” value [3, 5] of the same compound?
A: 54%

Q: And the “Percentage of Cells Showing Rad51+/FISEL+” value [3, 6]?
A: 6%

Q: What about the “Percentage of Cells Showing Rad51+/FISEL−” value [3, 6] of the same compound?
A: 9%

Q: And the “Percentage of Cells Showing Rad51−/FISEL+” value [3, 6]?
A: 40%

Q: What about the “Percentage of Cells Showing Rad51−/FISEL−” value [3, 6] of the same compound?
A: 45%

Q: What about the “Percentage of Cells Showing Rad51+/FISEL+” value [3, 7] of the same compound?
A: 4%

Q: And the “Percentage of Cells Showing Rad51+/FISEL−” value [3, 7]?
A: 7%

Q: What about the “Percentage of Cells Showing Rad51−/FISEL+” value [3, 7] of the same compound?
A: 46%

Q: And the “Percentage of Cells Showing Rad51−/FISEL−” value [3, 7]?
A: 43%

Q: And the “Percentage of Cells Showing Rad51+/FISEL+” value [3, 8]?
A: 0%

Q: What about the “Percentage of Cells Showing Rad51+/FISEL−” value [3, 8] of the same compound?
A: 6%

Q: What about the “Percentage of Cells Showing Rad51−/FISEL+” value [3, 8] of the same compound?
A: 9%

Q: And the “Percentage of Cells Showing Rad51−/FISEL−” value [3, 8]?
A: 85%

Q: And the “induced MN containing very brightly fluorescing Rad51 foci” value ([3]; colcemid-treated cells recovered 24 hrs in drug-free medium)?
A: over 30%

Q: For `Nc1ncn([C@H]2C[C@H](O)[C@@H](CO)O2)c(=O)n1` [5-aza-dC, 5-azadeoxycytidine], which “cells displaying MN with focally concentrated Rad51 protein” value [4] is on record?
A: 5-10%
